Measurements reported in patent US20230203060A1 (GENFLEET THERAPEUTICS (SHANGHAI) INC., priority 2020, published 2023).
Counter-ions that a name gives are not always drawn.

The compounds below were run against T1, KRAS G12C (Homo sapiens, UniProt P01116, G12C) (assay: KRAS G12C NEA-HTRF experiment (SOS1-catalyzed displacement of GDP by GTP)).
T1 construct: purchased Reactionbiology
Type: biochemical
In short: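 His-tagged KRAS G12C preloaded with DY647-GDP was preincubated 15 min at 20 °C with compound, then exchanged with SOS1 (0.2 μM working solution) and GTP (200 μM working solution) for 2 h at 20 °C in the dark. HTRF 665/615 nm ratio with anti-His-Tb was normalised to T0 and no-compound controls; IC50 by four-parameter fit.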

T1 sequence (P01116 1-188 isoform P01116-2 G12C): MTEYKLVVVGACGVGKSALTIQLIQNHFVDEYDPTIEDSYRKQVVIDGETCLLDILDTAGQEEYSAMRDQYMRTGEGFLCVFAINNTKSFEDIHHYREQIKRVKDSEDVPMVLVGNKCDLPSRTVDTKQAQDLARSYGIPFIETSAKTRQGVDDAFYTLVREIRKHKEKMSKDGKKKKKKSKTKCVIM

| SMILES | IC50 |
| --- | --- |
| C=CC(=O)N1CCN2C(=O)c3c(N4C[C@@H](O)CC4(C)C)nc(-c4c(O)cccc4F)c(Cl)c3OC[C@H]2C1 (single isomer, unassigned) [Z81] | 0.006 µM |
| C=CC(=O)N1CCN2C(=O)c3c(N4CCOC5CC54)nc(-c4c(O)cccc4F)c(Cl)c3OC[C@H]2C1 (stereo partly drawn) [Z76, (6aR)-8-acryloyl-4-chloro-1-(2-oxa-5-azabicyclo[4.1.0]heptan-5-yl)-3-(2-fluoro-6-hydroxyphenyl)-6,6a,7,8,9,10-hexahydro-12H-pyrazino[2,1-c]pyrido[3,4-f][1,4]oxazepin-12-one] | 0.173 µM |
| C=CC(=O)N1CCN2C(=O)c3c(N4C[C@H](O)CC4(C)C)nc(-c4c(O)cccc4F)c(Cl)c3OC[C@H]2C1 (single isomer, unassigned) [Z82] | 0.044 µM |
| C=CC(=O)N1CCN2C(=O)c3c(N4CC(N(C)C5COC5)CC4(C)C)nc(-c4c(O)cccc4F)c(Cl)c3OC[C@H]2C1 (single isomer, unassigned) [Z331-1] | 0.005 µM |
| C=CC(=O)N1CCN2C(=O)c3c(N4CCN(CC)C[C@@H]4C)nc(-c4c(O)cccc4F)c(Cl)c3OC[C@H]2C1 [Z236] | 0.113 µM |
| C=CC(=O)N1CCN2C(=O)c3c(N4CCN(C)C(C)C4C)nc(-c4c(O)cccc4F)c(Cl)c3OC[C@H]2C1 (stereo partly drawn) [Z308a, (6aR)-8-acryloyl-4-chloro-3-(2-fluoro-6-hydroxyphenyl)-1-(2,3,4-trimethylpiperazin-1-yl)-6,6a,7,8,9,10-hexahydro-12H-pyrazino[2,1-c]pyrido[3,4-f][1,4]oxazepin-12-one] | 0.111 µM |
| C=CC(=O)N1CCN2C(=O)c3c(N4C[C@H](N(C)CCF)CC4(C)C)nc(-c4ccccc4F)c(Cl)c3OC[C@H]2C1 (single isomer, unassigned) [Z660-2] | 0.0505 µM |
| C=CC(=O)N1CCN2C(=O)c3c(N4C[C@H](O)C[C@@H]4C)nc(-c4c(O)cccc4F)c(Cl)c3OC[C@H]2C1 [Z259, (6aR)-8-acryloyl-4-chloro-3-(2-fluoro-6-hydroxyphenyl)-1-((2S,4R)-4-hydroxy-2-methylpyrrolidin-1-yl)-6,6a,7,8,9,10-hexahydro-12H-pyrazino[2,1-c]pyrido[3,4-f][1,4]oxazepin-12-one] | 0.113 µM |
| C=CC(=O)N1CCN2C(=O)c3c(N4CC(=O)N(C)CC4C)nc(-c4c(O)cccc4F)c(Cl)c3OC[C@H]2C1 (single isomer, unassigned) [Z221-1] | 0.014 µM |
| C=CC(=O)N1CCN2C(=O)c3c(N4CCN(C)C[C@@H]4C)nc(-c4c(O)cccc4Cl)c(Cl)c3OC[C@H]2C1 (single isomer, unassigned) [Z455-2] | 0.0463 µM |
| C=CC(=O)N1CCN2C(=O)c3c(N4CCN(C)C[C@@H]4C)nc(-c4c(O)cccc4Cl)c(Cl)c3OC[C@H]2C1 (single isomer, unassigned) [Z455-1] | 0.692 µM |
| C=CC(=O)N1CCN2C(=O)c3c(N4CC(N(C)CC(F)F)CC4(C)C)nc(-c4ccccc4F)c(Cl)c3OC[C@H]2C1 (some centres unmarked) [Z659] | 0.0194 µM |
| C=CC(=O)N1CCN2C(=O)c3c(N4CC(N5CCOCC5)CC4(C)C)nc(-c4ccccc4F)c(Cl)c3OC[C@H]2C1 (single isomer, unassigned) [Z468-2] | 0.0465 µM |
| C=CC(=O)N1CCN2C(=O)c3c(N4C[C@H](NC)CC4(C)C)nc(-c4ccccc4F)c(Cl)c3OC[C@H]2C1 (single isomer, unassigned) [Z661-2] | 0.511 µM |
| C=CC(=O)N1CCN2C(=O)c3c(N4CC[C@@H]4C)nc(-c4c(O)cccc4F)c(Cl)c3OC[C@H]2C1 [Z68, (6aR)-8-acryloyl-1-((S)-2-methylazetidin-1-yl)-4-chloro-3-(2-fluoro-6-hydroxyphenyl)-6,6a,7,8,9,10-hexahydro-12H-pyrazino[2,1-c]pyrido[3,4-f][1,4]oxazepin-12-one] | 0.088 µM |
| C=CC(=O)N1CCN2C(=O)c3c(N4CCN(C)C(C)(C)C4)nc(-c4ccccc4F)c(Cl)c3OC[C@H]2C1 [Z463, (R)-8-acryloyl-4-chloro-3-(2-fluorophenyl)-1-(3,3,4-trimethylpiperazin-1-yl)-6,6a,7,8,9,10-hexahydro-12H-pyrazino[2,1-c]pyrido[3,4-f][1,4]oxazepin-12-one, formate] | 0.76 µM |

Continued, values first:

| IC50 | SMILES |
| --- | --- |
| 0.093 µM | C=CC(=O)N1CCN2C(=O)c3c(N4CCN(CCO)C[C@@H]4C)nc(-c4c(O)cccc4F)c(Cl)c3OC[C@H]2C1 [Z257, (6aR)-8-acryloyl-4-chloro-3-(2-fluoro-6-hydroxyphenyl)-1-((S)-4-(2-hydroxyethyl)-2-methylpiperazin-1-yl)-6,6a,7 ,8,9,10-hexahydro-12H-pyrazino[2,1-c]pyrido[3,4-f][1,4]oxazepin-12-one] |
| 0.128 µM | C=CC(=O)N1CCN2C(=O)c3c(N4C[C@H](N(C)C)CC4(C)C)nc(-c4ccccc4)c(Cl)c3OC[C@H]2C1 (single isomer, unassigned) [Z655-2] |
| 0.064 µM | C=CC(=O)N1CCN2C(=O)c3c(N4CC(O)CC4(C)C)nc(-c4c(O)cccc4F)c(F)c3OC[C@H]2C1 (stereo partly drawn) [Z256, (6aR)-8-acryloyl-4-fluoro-3-(2-fluoro-6-hydroxyphenyl)-1-(4-hydroxy-2,2-dimethylpyrrolidin-1-yl)-6,6a,7,8,9,10-hexahydro-12H-pyrazino[2,1-c]pyrido[3,4-f][1,4]oxazepin-12-one] |
| 0.036 µM | C=CC(=O)N1CCN2C(=O)c3c(N4CC(=O)N(C)CC4C)nc(-c4c(O)cccc4F)c(Cl)c3OC[C@H]2C1 (stereo partly drawn) [Z221, (6aR)-8-acryloyl-4-chloro-1-(2,4-dimethyl-5-oxopiperazin-1-yl)-3-(2-fluoro-6-hydroxyphenyl)-6,6a,7,8,9,10-hexahydro-12H-pyrazino[2,1-c]pyrido[3,4-f][1,4]oxazepin-12-one] |
| 0.007 µM | C=CC(=O)N1CCN2C(=O)c3c(N4CC(N(C)C5COC5)CC4(C)C)nc(-c4c(O)cccc4F)c(Cl)c3OC[C@H]2C1 (single isomer, unassigned) [Z331-2] |
| 0.138 µM | C=CC(=O)N1CCN2C(=O)c3c(NC(C)C)nc(-c4c(O)cccc4F)c(Cl)c3OC[C@H]2C1 [Z75, (6aR)-8-acryloyl-4-chloro-1-(isopropylamino)-3-(2-fluoro-6-hydroxyphenyl)-6,6a,7,8,9,10-hexahydro-12H-pyrazino[2,1-c]pyrido[3,4-f][1,4]oxazepin-12-one] |
| 0.176 µM | C=CC(=O)N1CCN2C(=O)c3c(OC4CCN(C)CC4)nc(-c4c(O)cccc4F)c(Cl)c3OC[C@H]2C1 [Z61, (6aR)-8-acryloyl-4-chloro-3-(2-fluoro-6-hydroxyphenyl)-1-((1-methylpiperidin-4-yl)oxy)-6,6a,7,8,9,10-hexahydro-12H-pyrazino[2,1-c]pyrido[3,4-f][1,4]oxazepin-12-one] |
| 0.15 µM | C=CC(=O)N1CCN2C(=O)c3c(N4CCN(C)C(C)(C)C4)nc(-c4c(O)cccc4F)c(Cl)c3OC[C@H]2C1 [Z261, (6aR)-8-acryloyl-4-chloro-3-(2-fluoro-6-hydroxyphenyl)-1-(3,3,4-trimethylpiperazin-1-yl)-6,6a,7,8,9,10-hexahydro-12H-pyrazino[2,1-c]pyrido[3,4-f][1,4]oxazepin-12-one] |
| 0.033 µM | C=CC(=O)N1CCN2C(=O)c3c(N4C[C@@H](O)C[C@@H]4C)nc(-c4c(O)cccc4F)c(Cl)c3OC[C@H]2C1 [Z260, (6aR)-8-acryloyl-4-chloro-3-(2-fluoro-6-hydroxyphenyl)-1-((2S,4S)-4-hydroxy-2-methylpyrrolidin-1-yl)-6,6a,7,8,9,10-hexahydro-12H-pyrazino[2,1-c]pyrido[3,4-f][1,4]oxazepin-12-one] |
| 0.058 µM | C=CC(=O)N1CCN2C(=O)c3c(C4NCCN5C(=O)CCC45C)nc(-c4c(O)cccc4F)c(Cl)c3OC[C@H]2C1 (stereo partly drawn) [Z337, (6aR)-8-acryloyl-4-chloro-3-(2-fluoro-6-hydroxyphenyl)-1-(8a-methylhexahydropyrrolo[1,2-a]pyrazin-6 (2H)-one-1-yl)-6,6a,7,8,9,10-hexahydro-12H-pyrazino[2,1-c]pyrido[3,4-f][1,4]oxazepin-12-one] |
| 0.139 µM | C=CC(=O)N1CCN2C(=O)c3c(N4CC(=O)N(C)CC4C)nc(-c4c(O)cccc4F)c(Cl)c3OC[C@H]2C1 (single isomer, unassigned) [Z221-2] |
| 0.167 µM | C=CC(=O)N1CCN2C(=O)c3c(N4CCNC(C)C4C)nc(-c4c(O)cccc4F)c(Cl)c3OC[C@H]2C1 (stereo partly drawn) [Z308, (6aR)-8-acryloyl-4-chloro-1-(2,3-dimethylpiperazin-1-yl)-3-(2-fluoro-6-hydroxyphenyl)-6,6a,7,8,9, 10-hexahydro-12H-pyrazino[2,1-c]pyrido[3,4-f][1,4]oxazepin-12-one] |
| 0.079 µM | C=CC(=O)N1CCN2C(=O)c3c(NC(C)(C)C)nc(-c4c(O)cccc4F)c(Cl)c3OC[C@H]2C1 [Z69, (6aR)-8-acryloyl-1-(tert-butylamino)-4-chloro-3-(2-fluoro-6-hydroxyphenyl)-6,6a,7,8,9,10-hexahydro-12H-pyrazino[2,1-c]pyrido[3,4-f][1,4]oxazepin-12-one] |
